Reference: the NIST ThermoML archive (doi:10.1016/j.fluid.2005.01.007)
Numbers after ± are expanded uncertainties.

Key:
[1] = Liquid; for mass density: 298.15 K, 101.33 kPa
[2] = refractive index (Na D-line) (dimensionless); settings: 298.15 K; 101.33 kPa; Liquid; Standard Abbe refractometry

Compound | mass density [1] [kg/m3] | vapor or sublimation pressure ([1]; 372.33 K) [kPa] | refractive index [2] | vapor or sublimation pressure ([1]; 329.26 K) [kPa] | vapor or sublimation pressure ([1]; 351.44 K) [kPa]
CC(C)CC(C)(C)C [2,2,4-trimethylpentane] | 687.72 ± 0.81 | 101.32 ± 0.55 | 1.38887 ± 0.00072 |  | 
CC(C)=O [acetone] | 785.47 ± 0.61 |  | 1.35597 ± 0.00072 | 101.32 ± 0.55 | 
CCO [ethanol] | 785.09 ± 0.62 |  | 1.35926 ± 0.00072 |  | 101.32 ± 0.55
